In patent US20230203021A1, “GLP-1 RECEPTOR AGONIST, PHARMACEUTICAL COMPOSITION COMPRISING SAME, AND METHOD FOR PREPARING SAME” (LG CHEM, LTD., priority 2020, published 2023):

The compounds below were run against T1, hGLP-1R (Homo sapiens, UniProt P43220) (assay: Measurement of activity of GLP-1R agonist (cell-based luciferase assay), CHO-K1/hGLP-1R/CRE-luciferase cell line). Details: GLP-1R activity; CHO-K1/hGLP-1R/CRE-luciferase cells, 9 concentrations, four hours of incubation, Bright-Glo luminescence.
T1 construct: expressed in transfected cells; host or cells: CHO-K1
Experimental: 15,000 cells of a CHO-K1/hGLP-1R/CRE-luciferase cell line were seeded in a 96-well plate. A medium used herein was Ham’s F-12 Nutrient medium. The cells were incubated for 18 hours in a 5% CO2 incubator which was maintained at 37° C., and then treated with drugs. Each drug dispensed at 9 different concentrations was dissolved in a DMEM/F-12 + 1% FBS medium, and the cell line was treated with each of 100 µl thereof. After four hours of incubation, a Bright-Glo® luciferase assay system kit was used to add 30 µl of an assay reagent per well. A plate was stored at room temperature for 15 minutes, and then luminescence was measured using a SpectraMax M5 reader.

T1 sequence (P43220 24-463): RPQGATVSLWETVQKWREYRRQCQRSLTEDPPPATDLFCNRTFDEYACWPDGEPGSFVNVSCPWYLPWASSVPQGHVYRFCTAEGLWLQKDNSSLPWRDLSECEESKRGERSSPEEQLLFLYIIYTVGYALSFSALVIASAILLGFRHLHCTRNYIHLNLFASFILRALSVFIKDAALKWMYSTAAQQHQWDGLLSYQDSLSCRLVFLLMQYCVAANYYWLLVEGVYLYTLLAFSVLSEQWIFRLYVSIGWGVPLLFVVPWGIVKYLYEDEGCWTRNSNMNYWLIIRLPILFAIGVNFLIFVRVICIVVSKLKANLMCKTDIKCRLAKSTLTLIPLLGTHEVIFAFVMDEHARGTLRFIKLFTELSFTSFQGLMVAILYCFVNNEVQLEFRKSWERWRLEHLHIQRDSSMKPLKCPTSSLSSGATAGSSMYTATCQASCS

Going from `O=C(O)c1ccc2nc(Cc3ccc(-c4cccc(OCc5ccc(Cl)cc5F)n4)cc3)n(CC3CCCO3)c2c1` (stereo not drawn) [Example 1, 2-(4-(6-((4-chloro-2-fluorobenzyl)oxy)pyridin-2-yl)benzyl)-1-((tetrahydrofuran-2-yl)methyl)-1H-benzo[d]imidazole-6-carboxylic acid] to `O=C(O)c1ccc2nc(Cc3ccc(-c4cccc(OCc5ccc(Cl)cc5F)n4)cc3)n(C[C@@H]3CCCO3)c2c1` [Example 12, (S)-2-(4-(6-((4-chloro-2-fluorobenzyl)oxy)pyridin-2-yl)benzyl)-1-((tetrahydrofuran-2-yl)methyl)-1H-benzo[d]imidazole-6-carboxylic acid], the EC50 falls from 205 pM to 70.6 pM (2.9-fold).

Compared with `O=C(O)c1ccc2nc(Cc3ccc(-c4cccc(OCc5ccc(Cl)cc5F)n4)cc3)n(C[C@@H]3CCO3)c2c1` [Example 2, (S)-2-(4-(6-((4-chloro-2-fluorobenzyl)oxy)pyridin-2-yl)benzyl)-1-(oxetan-2-ylmethyl)-1H-benzo[d]imidazole-6-carboxylic acid], `O=C(O)c1ccc2nc(Cc3ccc(-c4cccc(OCc5ccc(Cl)cc5F)n4)cc3)n(C[C@H]3CCCO3)c2c1` [Example 13, (R)-2-(4-(6-((4-chloro-2-fluorobenzyl)oxy)pyridin-2-yl)benzyl)-1-((tetrahydrofuran-2-yl)methyl)-1H-benzo[d]imidazole-6-carboxylic acid] is 290-fold higher in EC50: 7 pM for the first, 2020 pM for the second. The first is the more potent here.

`CCn1cncc1Cn1c(Cc2ccc(-c3cccc(OCc4ccc(C#N)cc4F)n3)cc2)nc2ccc(C(=O)O)cc21` [Example 4, 2-(4-(6-((4-cyano-2-fluorobenzyl)oxy)pyridin-2-yl)benzyl)-1-((1-ethyl-1H-imidazol-5-yl)methyl)-1H-benzo[d]imidazole-6-carboxylic acid] and `CCn1cncc1Cn1c(Oc2ccc(-c3cccc(OCc4ccc(C#N)cc4F)n3)cc2)nc2ccc(C(=O)O)cc21` [Example 5, 2-(4-(6-((4-cyano-2-fluorobenzyl)oxy)pyridin-2-yl)phenoxy)-1-((1-ethyl-1H-imidazol-5-yl)methyl)-1H-benzo[d]imidazole-6-carboxylic acid] are within 1.5-fold of each other in EC50: 15 pM for the first, 16 pM for the second.

Compared with `N#Cc1ccc(COc2cccc(-c3ccc(Oc4nc5ccc(C(=O)O)cc5n4C[C@@H]4CCO4)cc3)n2)c(F)c1` [Example 6, (S)-2-(4-(6-((4-cyano-2-fluorobenzyl)oxy)pyridin-2-yl)phenoxy)-1-(oxetan-2-ylmethyl)-1H-benzo[d]imidazole-6-carboxylic acid], `O=C(O)c1ccc2nc(Oc3ccc(-c4cccc(OCc5ccc(Cl)cc5F)n4)cc3)n(C[C@@H]3CCO3)c2c1` [Example 7, (S)-2-(4-(6-((4-chloro-2-fluorobenzyl)oxy)pyridin-2-yl)phenoxy)-1-(oxetan-2-ylmethyl)-1H-benzo[d]imidazole-6-carboxylic acid] is 320-fold lower in EC50: 21000 pM for the first, 66 pM for the second.

Compared with `N#Cc1ccc(COc2cccc(-c3ccc(Oc4nc5ccc(C(=O)O)cc5n4Cc4cnco4)cc3)n2)c(F)c1` [Example 9, 2-(4-(6-((4-cyano-2-fluorobenzyl)oxy)pyridin-2-yl)phenoxy)-1-(oxazol-5-ylmethyl)-1H-benzo[d]imidazole-6-carboxylic acid], `O=C(O)c1ccc2nc(Cc3ccc(-c4cccc(OCc5ccc(C(F)(F)F)cc5F)n4)cc3)n(Cc3cnco3)c2c1` [Example 21, 2-(4-(6-((2-fluoro-4-(trifluoromethyl)benzyl)oxy)pyridin-2-yl)benzyl)-1-(oxazol-5-ylmethyl)-1H-benzo[d]imidazole-6-carboxylic acid] is 2.2-fold lower in EC50: 700 pM for the first, 317 pM for the second.

`O=C(O)c1ccc2nc(Cc3ccc(-c4cccc(OCc5ccc(Cl)cc5F)n4)cc3F)n(Cc3cnco3)c2c1` [Example 11, 2-(4-(6-((4-chloro-2-fluorobenzyl)oxy)pyridin-2-yl)-2-fluorobenzyl)-1-(oxazol-5-ylmethyl)-1H-benzo[d]imidazole-6-carboxylic acid] and `O=C(O)c1ccc2nc(Cc3ccc(-c4cccc(OCc5ccc(Cl)cc5F)n4)c(F)c3)n(Cc3cnco3)c2c1` [Example 23, 2-(4-(6-((4-chloro-2-fluorobenzyl)oxy)pyridin-2-yl)-3-fluorobenzyl)-1-(oxazol-5-ylmethyl)-1H-benzo[d]imidazole-6-carboxylic acid] are within 1.5-fold of each other in EC50: 74.6 pM for the first, 61 pM for the second.

`O=C(O)c1ccc2nc(Cc3ccc(-c4cccc(OCc5ccc(Cl)cc5F)n4)cc3)n(CC3CCCCO3)c2c1` (stereo not drawn) [Example 14, 2-(4-(6-((4-chloro-2-fluorobenzyl)oxy)pyridin-2-yl)benzyl)-1-((tetrahydro-2H-pyran-2-yl)methyl)-1H-benzo[d]imidazole-6-carboxylic acid] and `O=C(O)c1ccc2nc(Cc3ccc(-c4cccc(OCc5ccc(C(F)(F)F)cc5F)n4)cc3)n(C[C@@H]3CCO3)c2c1` [Example 16, (S)-2-(4-(6-((2-fluoro-4-(trifluoromethyl)benzyl)oxy)pyridin-2-yl)benzyl)-1-(oxetan-2-ylmethyl)-1H-benzo[d]imidazole-6-carboxylic acid] cannot be ordered by EC50: greater than 80000 pM for the first, greater than 80000 pM for the second.

Compared with `O=C(O)c1ccc2nc(Cc3ccc(-c4cccc(OCc5ccc(Cl)cc5F)n4)c(F)c3)n(C[C@@H]3CCO3)c2c1` [Example 15, (S)-2-(4-(6-((4-chloro-2-fluorobenzyl)oxy)pyridin-2-yl)-3-fluorobenzyl)-1-(oxetan-2-ylmethyl)-1H-benzo[d]imidazole-6-carboxylic acid], `O=C(O)c1ccc2nc(Oc3ccc(-c4cccc(OCc5ccc(Cl)cc5F)n4)c(F)c3)n(C[C@@H]3CCO3)c2c1` [Example 20, (S)-2-(4-(6-((4-chloro-2-fluorobenzyl)oxy)pyridin-2-yl)-3-fluorophenoxy)-1-(oxetan-2-ylmethyl)-1H-benzo[d]imidazole-6-carboxylic acid] is 35-fold higher in EC50: 3.5 pM for the first, 121 pM for the second. The first is the more potent here.

`O=C(O)c1ccc2nc(Oc3ccc(-c4cccc(OCc5ccc(Cl)cc5F)n4)cc3F)n(C[C@@H]3CCO3)c2c1` [Example 17, (S)-2-(4-(6-((4-chloro-2-fluorobenzyl)oxy)pyridin-2-yl)-2-fluorophenoxy)-1-(oxetan-2-ylmethyl)-1H-benzo[d]imidazole-6-carboxylic acid] and `O=C(O)c1ccc2nc(Oc3ccc(-c4cccc(OCc5ccc(Cl)cc5F)n4)cc3Cl)n(C[C@@H]3CCO3)c2c1` [Example 18, (S)-2-(2-chloro-4-(6-((4-chloro-2-fluorobenzyl)oxy)pyridin-2-yl)phenoxy)-1-(oxetan-2-ylmethyl)-1H-benzo[d]imidazol-6-carboxylic acid] are within 1.5-fold of each other in EC50: 357 pM for the first, 438 pM for the second.

Compared with `O=C(O)c1ccc2nc(Oc3c(F)cc(-c4cccc(OCc5ccc(Cl)cc5F)n4)cc3F)n(C[C@@H]3CCO3)c2c1` [Example 19, (S)-2-(4-(6-((4-chloro-2-fluorobenzyl)oxy)pyridin-2-yl)-2,6-difluorophenoxy)-1-(oxetan-2-ylmethyl)-1H-benzo[d]imidazole-6-carboxylic acid], `O=C(O)c1ccc2nc(Cc3ccc(-c4cccc(OCc5ccc(Cl)cc5F)n4)c(Cl)c3)n(Cc3cnco3)c2c1` [Example 22, 2-(3-chloro-4-(6-((4-chloro-2-fluorobenzyl)oxy)pyridin-2-yl)benzyl)-1-(oxazol-5-ylmethyl)-1H-benzo[d]imidazole-6-carboxylic acid] is 2.1-fold lower in EC50: 1330 pM for the first, 635 pM for the second.

With `CCCn1cnnc1Cn1c(Cc2ccc(-c3cccc(OCc4ccc(Cl)cc4F)n3)cc2)nc2ccc(C(=O)O)cc21` [Example 24, 2-(4-(6-((4-chloro-2-fluorobenzyl)oxy)pyridin-2-yl)benzyl)-1-((4-propyl-4H-1,2,4-triazol-3-yl)methyl)-1H-benzo[d]imidazole-6-carboxylic acid] the EC50 was 167 pM.
